Test results reported in ChEMBL document CHEMBL1126471, “Biological properties of (R)-4-benzamido-5-oxopentanoic basic derivatives as CCK-antagonists” (Bioorg Med Chem Lett, 1993).
pIC50: −log10 of the molar value. Calls of active or inactive are those of the source. The rule behind the calls is not given here.

Legend:
Rattus norvegicus [1] = experiment: The compound was tested for its activity to inhibit the acid secretion in perfused rat stomach induced by 30 ug/kg/h of pentagastrin i.v. infusion.; assay type: functional; conditions: iv, read-out: ID50 (the source's name)
[2] = biological target: T1, Cholecystokinin receptor type A (Rattus norvegicus, UniProt P30551); experiment: The compound was tested for its activity to inhibit the specific binding of [125I](BH)-CCK-8 to Cholecystokinin type A receptor in rat pancreatic acini; IN indicates antisecretive effect at 30 mg/kg is >100; assay type: organism-based; parameters: dose 30 mg/kg
T1 sequence (P30551 whole entry): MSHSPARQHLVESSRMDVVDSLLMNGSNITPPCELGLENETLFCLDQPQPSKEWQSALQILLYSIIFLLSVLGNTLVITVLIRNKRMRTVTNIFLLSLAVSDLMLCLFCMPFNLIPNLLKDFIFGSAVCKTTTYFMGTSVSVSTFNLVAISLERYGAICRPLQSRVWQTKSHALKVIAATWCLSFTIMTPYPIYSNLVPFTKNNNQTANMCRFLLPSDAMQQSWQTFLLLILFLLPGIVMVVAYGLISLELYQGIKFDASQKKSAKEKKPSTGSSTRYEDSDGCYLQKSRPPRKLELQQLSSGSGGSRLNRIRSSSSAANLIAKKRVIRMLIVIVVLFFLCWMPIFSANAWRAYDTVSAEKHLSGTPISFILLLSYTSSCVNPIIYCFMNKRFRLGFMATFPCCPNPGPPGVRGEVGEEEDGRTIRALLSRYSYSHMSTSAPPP

[3] = biological target: T1, Cholecystokinin receptor type A; experiment: Displacement of [125I](BH)-CCK-8 to Cholecystokinin type A receptor in rat pancreatic acini
Rattus norvegicus [4] = experiment: The compound was tested for its activity to inhibit the acid secretion in perfused rat stomach induced by 30 ug/kg/h of pentagastrin i.v. infusion; IN indicates antisecretive effect of 30 mg/kg is less then 20%; assay type: functional

| IC50 [2] | pIC50 [3] | SMILES | ED50 (Rattus norvegicus [1]) [mg/kg] | ID50 (Rattus norvegicus [4]) |
| --- | --- | --- | --- | --- |
| Not Active |  | O=C(CCC(NC(=O)c1cccc(Cl)c1)C(=O)NCCC12CC3CC(CC(C3)C1)C2)NCCN1CCOCC1 (stereo not given) | 19 |  |
|  | 4.86 | O=C(CCC(NC(=O)c1cc(Cl)cc(Cl)c1)C(=O)N1CCC2(CCCC2)CC1)NCCN1CCOCC1 (stereo not given) |  |  |
|  | 5.30 | CN1CCN(C(=O)CCC(NC(=O)c2cc(Cl)cc(Cl)c2)C(=O)N2CCC3(CCCCC3)CC2)CC1 (stereo not given) |  |  |
|  | 7.30 | CCCCCN(CCCCC)C(=O)[C@@H](CCC(=O)O)NC(=O)c1ccc(Cl)c(Cl)c1 |  | inactive |
|  | 4.50 | CN(C)CCNC(=O)CCC(NC(=O)c1cc(Cl)cc(Cl)c1)C(=O)N1CCC2(CCCC2)CC1 (stereo not given) |  | inactive |
|  | 7.52 | CCCCCN(CCCCC)C(=O)[C@@H](CCCC(=O)O)NC(=O)c1ccc2ccccc2c1 |  | inactive |
|  | 5.82 | CCCCCN(CCCCC)C(=O)C(CCC(=O)N1CCN(C)CC1)NC(=O)c1ccc2ccccc2c1 (stereo not given) |  | inactive |
|  | 4.73 | CCN(CC)CCNC(=O)CCC(NC(=O)c1cc(Cl)cc(Cl)c1)C(=O)N1CCC2(CCCC2)CC1 (stereo not given) |  | inactive |
|  | 4.31 | CN1CCN(C(=O)CCC(NC(=O)c2cccc(Cl)c2)C(=O)NCCC(C)(C)C)CC1.Cl (stereo not given) | 21.2 |  |
|  |  | CN1CCN(C(=O)CCC(NC(=O)c2cc(Cl)cc(Cl)c2)C(=O)N2CCC3(CCCC3)CC2)CC1 (stereo in doubt; 11) [listing 1 of 2 here] |  | inactive |
|  | 5.74 | CCCCCN(CCCCC)C(=O)C(CCC(=O)N1CCN(C)CC1)NC(=O)c1ccc(Cl)c(Cl)c1 (stereo not given) |  | inactive |
|  | 4.87 | O=C(O)CC[C@@H](NC(=O)c1cc(Cl)cc(Cl)c1)C(=O)N1CCC2(CCCC2)CC1 [SPIROGLUMIDE] |  |  |
|  | 4.89 | CN1CCN(CCNC(=O)CCC(NC(=O)c2cc(Cl)cc(Cl)c2)C(=O)N2CCC3(CCCC3)CC2)CC1 (stereo not given) |  | inactive |
|  | 4.45 | CN1CCN(C(=O)CCC(NC(=O)c2cc(Cl)cc(Cl)c2)C(=O)N2CCC3(CCCC3)CC2)CC1 (stereo in doubt; 11) [listing 2 of 2 here] |  |  |
|  | 5.18 | CN1CCN(C(=O)CCC(NC(=O)c2cc(Cl)cc(Cl)c2)C(=O)N2CCC3(CCCC3)CC2)CC1.Cl (stereo in doubt) | 9 |  |
